According to patent US12391737B2, “Soluble NPY2 receptor agonists” (Boehringer Ingelheim International GmbH, priority 2020, dated 2025):

Key:
[1] = target: T1, Human Neuropeptide Y2 Receptor (Homo sapiens, UniProt P49146); assay: Radioligand binding competition assay (RLB); settings: Table 3, 125I-PYY(1-36) competition; read-out: Ki
T1 construct: purchased CHEMICON HTS066M
T1 sequence (P49146 1-381): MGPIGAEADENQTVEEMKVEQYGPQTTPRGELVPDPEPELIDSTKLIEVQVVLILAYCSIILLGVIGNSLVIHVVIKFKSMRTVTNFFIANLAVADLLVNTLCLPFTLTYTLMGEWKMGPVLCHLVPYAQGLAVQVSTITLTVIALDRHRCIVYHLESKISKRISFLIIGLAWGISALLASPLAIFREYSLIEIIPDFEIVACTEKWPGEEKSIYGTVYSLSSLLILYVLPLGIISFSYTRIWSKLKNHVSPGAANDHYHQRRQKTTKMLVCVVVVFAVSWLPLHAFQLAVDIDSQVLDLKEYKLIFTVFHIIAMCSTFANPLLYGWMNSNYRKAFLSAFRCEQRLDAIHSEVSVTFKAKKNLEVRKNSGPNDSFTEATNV
Procedure, shortened: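 IC50 values come from sigmoidal dose-response fits of scintillation counts after peptides competed for radioligand binding at receptor membranes (0.5 μg protein/well). Incubation ran 2 h at room temperature in HEPES buffer, pH 7.4, with Mg2+, Ca2+ and 0.2% ovalbumin.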

Solubility determination = settings: for Sol6: pH 6; for Sol7: pH 7
Procedure, shortened: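 Shake-flask style: 10 mg/ml peptide (TFA salt), 0.1 M sodium diphosphate pH 6.4/7.0, 600 rpm, 2 h, RT; filter; dilute 1 mg/ml in 50% MeCN; RP-UPLC, 0–100% B over 2 min, 50 °C. Solubility = sample/control area ratio. Final pH recorded.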

Ki [1]	Sol6 (Solubility determination)	Sol7 (Solubility determination)	Compound
7.6 nM	>10.0 mg/mL	>10.0 mg/mL	CC(C)CC(=O)N[C@@H](C)C(=O)N1CCC[C@H]1C(=O)N[C@@H](CCC(=O)O)C(=O)N[C@@H](CCCCNC(=O)CCCCCNC(=O)CC[C@H](NC(=O)CCCCCCCCCCCCCCCCC(=O)O)C(=O)O)C(=O)N1CCC[C@H]1C(=O)N[C@@H](CCC(=O)O)C(=O)N[C@@H](CCC(=O)O)C(=O)N[C@@H](CC(=O)O)C(=O)N[C@@H](C)C(=O)N[C@H](C(=O)N1CCC[C@H]1C(=O)N[C@@H](CCC(=O)O)C(=O)N[C@@H](CCC(=O)O)C(=O)N[C@@H](CC(C)C)C(=O)N[C@@H](CCC(N)=O)C(=O)N[C@@H](CCCNC(=N)N)C(=O)N[C@@H](Cc1ccc(O)cc1)C(=O)N[C@@H](Cc1ccc(O)cc1)C(=O)N[C@H](C(=O)N[C@@H](CO)C(=O)N[C@@H](CC(C)C)C(=O)N[C@@H](CCCNC(=N)N)C(=O)N[C@@H](Cc1c[nH]cn1)C(=O)N[C@@H](Cc1ccc(O)cc1)C(=O)N[C@@H](Cc1ccc(O)cc1)C(=O)N[C@@H](CC(N)=O)C(=O)N[C@@H](Cc1c[nH]c2ccccc12)C(=O)N[C@@H](CC(C)C)C(=O)N[C@@H](CO)C(=O)N[C@@H](CCCNC(=N)N)C(=O)N[C@@H](CCC(N)=O)C(=O)N[C@@H](CCCNC(=N)N)C(=O)N[C@@H](Cc1ccc(O)cc1)C(N)=O)C(C)C)[C@@H](C)O [Compound 155, N{alpha-4}-(3-methylbutanoyl)-N{epsilon-7}-(6-[(4S)-4-carboxy-4-(17-carboxyheptadecanamido)butanamido]hexanoyl)-[4A,7K,9E,13T,18Q,22V,28Y,30W,31L,32S]-hPYY(4-36)]
12.4 nM	10.0 mg/mL	10.0 mg/mL	CC(C)CC(=O)N[C@@H](C)C(=O)N1CCC[C@H]1C(=O)N[C@@H](CCC(=O)O)C(=O)N[C@@H](CCCCNC(=O)CCCCCNC(=O)CC[C@H](NC(=O)CCCCCCCCCCCCCCCCC(=O)O)C(=O)O)C(=O)N1CCC[C@H]1C(=O)N[C@@H](CCC(=O)O)C(=O)N[C@@H](CCC(=O)O)C(=O)N[C@@H](CC(=O)O)C(=O)N[C@@H](C)C(=O)N[C@H](C(=O)N1CCC[C@H]1C(=O)N[C@@H](CCC(=O)O)C(=O)N[C@@H](CCC(=O)O)C(=O)N[C@@H](CC(C)C)C(=O)N[C@@H](CCC(N)=O)C(=O)N[C@@H](CCC(=O)O)C(=O)N[C@@H](Cc1ccc(O)cc1)C(=O)N[C@@H](Cc1ccc(O)cc1)C(=O)N[C@H](C(=O)N[C@@H](CO)C(=O)N[C@@H](CC(C)C)C(=O)N[C@@H](CCCNC(=N)N)C(=O)N[C@@H](Cc1c[nH]cn1)C(=O)N[C@@H](Cc1ccc(O)cc1)C(=O)N[C@@H](Cc1ccc(O)cc1)C(=O)N[C@@H](CC(N)=O)C(=O)N[C@@H](Cc1c[nH]c2ccccc12)C(=O)N[C@@H](CC(C)C)C(=O)N[C@H](C(=O)N[C@@H](CCCNC(=N)N)C(=O)N[C@@H](CCC(N)=O)C(=O)N[C@@H](CCCNC(=N)N)C(=O)N[C@@H](Cc1ccc(O)cc1)C(N)=O)[C@@H](C)O)C(C)C)[C@@H](C)O [Compound 38, N{alpha-4}-(3-methylbutanoyl)-N{epsilon-7}-(6-[(4S)-4-carboxy-4-(17-carboxyheptadecanamido)butanamido]hexanoyl)[4A,7K,9E,13T,18Q,19E,22V,28Y,30W,31L]-hPYY(4-36)]
9.07 nM	9.9 mg/mL	10.0 mg/mL	CC(C)CC(=O)N[C@@H](C)C(=O)N1CCC[C@H]1C(=O)N[C@@H](CCC(=O)O)C(=O)N[C@@H](CCCCNC(=O)CCCCCNC(=O)CC[C@H](NC(=O)CCCCCCCCCCCCCCCCC(=O)O)C(=O)O)C(=O)N1CCC[C@H]1C(=O)N[C@@H](CCC(=O)O)C(=O)N[C@@H](CCC(=O)O)C(=O)N[C@@H](CC(=O)O)C(=O)N[C@@H](C)C(=O)N[C@@H](CCC(=O)O)C(=O)N1CCC[C@H]1C(=O)N[C@@H](CCC(=O)O)C(=O)N[C@@H](CCC(=O)O)C(=O)N[C@@H](CC(C)C)C(=O)N[C@@H](CCC(N)=O)C(=O)N[C@@H](CCCNC(=N)N)C(=O)N[C@@H](Cc1ccc(O)cc1)C(=O)N[C@@H](Cc1ccc(O)cc1)C(=O)N[C@H](C(=O)N[C@@H](CO)C(=O)N[C@@H](CC(C)C)C(=O)N[C@@H](CCCNC(=N)N)C(=O)N[C@@H](Cc1c[nH]cn1)C(=O)N[C@@H](Cc1ccc(O)cc1)C(=O)N[C@@H](Cc1ccc(O)cc1)C(=O)N[C@@H](CCC(N)=O)C(=O)N[C@@H](Cc1c[nH]c2ccccc12)C(=O)N[C@@H](CC(C)C)C(=O)N[C@H](C(=O)N[C@@H](CCCNC(=N)N)C(=O)N[C@@H](CCC(N)=O)C(=O)N[C@@H](CCCNC(=N)N)C(=O)N[C@@H](Cc1ccc(O)cc1)C(N)=O)[C@@H](C)O)C(C)C [Compound 68, N{alpha-4}-(3-methylbutanoyl)-N{epsilon-7}-(6-[(4S)-4-carboxy-4-(17-carboxyheptadecanamido)butanamido]hexanoyl)-[4A,7K,9E,13E,18Q,22V,28Y,29Q,30W,31L]-hPYY(4-36)]
6.04 nM	>10.0 mg/mL	10.0 mg/mL	CC(C)CC(=O)N[C@@H](C)C(=O)N1CCC[C@H]1C(=O)N[C@@H](CCC(=O)O)C(=O)N[C@@H](CCCCNC(=O)CCCCCNC(=O)CC[C@H](NC(=O)CCCCCCCCCCCCCCCCC(=O)O)C(=O)O)C(=O)N1CCC[C@H]1C(=O)N[C@@H](CCC(=O)O)C(=O)N[C@@H](CCC(=O)O)C(=O)N[C@@H](CC(=O)O)C(=O)N[C@@H](C)C(=O)N[C@@H](CO)C(=O)N1CCC[C@H]1C(=O)N[C@@H](CCC(=O)O)C(=O)N[C@@H](CCC(=O)O)C(=O)N[C@@H](CC(C)C)C(=O)N[C@@H](CCC(N)=O)C(=O)N[C@@H](CCCNC(=N)N)C(=O)N[C@@H](Cc1ccc(O)cc1)C(=O)N[C@@H](Cc1ccc(O)cc1)C(=O)N[C@H](C(=O)N[C@@H](CO)C(=O)N[C@@H](CC(C)C)C(=O)N[C@@H](CCCNC(=N)N)C(=O)N[C@@H](Cc1c[nH]cn1)C(=O)N[C@@H](Cc1ccc(O)cc1)C(=O)N[C@@H](Cc1ccc(O)cc1)C(=O)N[C@@H](CCC(N)=O)C(=O)N[C@@H](Cc1c[nH]c2ccccc12)C(=O)N[C@@H](CC(C)C)C(=O)N[C@H](C(=O)N[C@@H](CCCNC(=N)N)C(=O)N[C@@H](CCC(N)=O)C(=O)N[C@@H](CCCNC(=N)N)C(=O)N[C@@H](Cc1ccc(O)cc1)C(N)=O)[C@@H](C)O)C(C)C [Compound 60, N{alpha-4}-(3-methylbutanoyl)-N{epsilon-7}-(6-[(4S)-4-carboxy-4-(17-carboxyheptadecanamido)butanamido]hexanoyl)-[4A,7K,9E,18Q,22V,28Y,29Q,30W,31L]-hPYY(4-36)]

Continued, compound first:

Compound	Ki [1]	Sol6 (Solubility determination)	Sol7 (Solubility determination)
CC[C@H](C)[C@H](NC(=O)[C@H](CCC(=O)O)NC(=O)[C@H](CCC(=O)O)NC(=O)[C@@H]1CCCN1C(=O)[C@@H](NC(=O)[C@H](C)NC(=O)[C@H](CC(=O)O)NC(=O)[C@H](CCC(=O)O)NC(=O)[C@H](CCC(=O)O)NC(=O)[C@@H]1CCCN1C(=O)[C@H](CCCCNC(=O)CCCCCNC(=O)CC[C@H](NC(=O)CCCCCCCCCCCCCCCCC(=O)O)C(=O)O)NC(=O)[C@H](CCC(=O)O)NC(=O)[C@@H]1CCCN1C(=O)[C@H](C)NC(=O)CC(C)C)[C@@H](C)O)C(=O)N[C@@H](CCC(N)=O)C(=O)N[C@@H](CCCNC(=N)N)C(=O)N[C@@H](Cc1ccc(O)cc1)C(=O)N[C@@H](Cc1ccc(O)cc1)C(=O)N1CCC[C@H]1C(=O)N[C@@H](CO)C(=O)N[C@@H](CC(C)C)C(=O)N[C@@H](CCCNC(=N)N)C(=O)N[C@@H](Cc1c[nH]cn1)C(=O)N[C@@H](Cc1ccc(O)cc1)C(=O)N[C@@H](Cc1ccc(O)cc1)C(=O)N[C@@H](CC(N)=O)C(=O)N[C@@H](Cc1c[nH]c2ccccc12)C(=O)N[C@@H](CC(C)C)C(=O)N[C@H](C(=O)N[C@@H](CCCNC(=N)N)C(=O)N[C@@H](CCC(N)=O)C(=O)N[C@@H](CCCNC(=N)N)C(=O)N[C@@H](Cc1ccc(O)cc1)C(N)=O)[C@@H](C)O [Compound 17, N{alpha-4}-(3-methylbutanoyl)-N{epsilon-7}-(6-[(4S)-4-carboxy-4-(17-carboxyheptadecanamido)butanamido]hexanoyl)[4A,7K,9E,13T,17I,18Q,22P,28Y,30W,31L]-hPYY(4-36)]	24.6 nM	10.0 mg/mL	10.0 mg/mL
CC[C@H](C)[C@H](NC(=O)[C@H](CCC(=O)O)NC(=O)[C@H](CCC(=O)O)NC(=O)[C@@H]1CCCN1C(=O)[C@H](C)NC(=O)[C@H](C)NC(=O)[C@H](CC(=O)O)NC(=O)[C@H](CCC(=O)O)NC(=O)[C@H](CCC(=O)O)NC(=O)[C@@H]1CCCN1C(=O)[C@H](CCCCNC(=O)CCCCCNC(=O)CC[C@H](NC(=O)CCCCCCCCCCCCCCCCC(=O)O)C(=O)O)NC(=O)[C@H](CCC(=O)O)NC(=O)[C@@H]1CCCN1C(=O)[C@H](C)NC(=O)CC(C)C)C(=O)N[C@@H](CCC(N)=O)C(=O)N[C@@H](CCCNC(=N)N)C(=O)N[C@@H](Cc1ccc(O)cc1)C(=O)N[C@@H](Cc1ccc(O)cc1)C(=O)N[C@H](C(=O)N[C@@H](CO)C(=O)N[C@@H](CC(C)C)C(=O)N[C@@H](CCCNC(=N)N)C(=O)N[C@@H](Cc1c[nH]cn1)C(=O)N[C@@H](Cc1ccc(O)cc1)C(=O)N[C@@H](Cc1ccc(O)cc1)C(=O)N[C@@H](CC(N)=O)C(=O)N[C@@H](Cc1c[nH]c2ccccc12)C(=O)N[C@@H](CC(C)C)C(=O)N[C@H](C(=O)N[C@@H](CCCNC(=N)N)C(=O)N[C@@H](CCC(N)=O)C(=O)N[C@@H](CCCNC(=N)N)C(=O)N[C@@H](Cc1ccc(O)cc1)C(N)=O)[C@@H](C)O)C(C)C [Compound 170, N{alpha-4}-(3-methylbutanoyl)-N{epsilon-7}-(6-[(4S)-4-carboxy-4-(17-carboxyheptadecanamido)butanamido]hexanoyl)-[4A,7K,9E,13A,17I,18Q,22V,28Y,30W,31L]-hPYY(4-36)]	2.28 nM	>10.0 mg/mL	10.0 mg/mL
